13 compounds from patent US20240190880A1 (THE REGENTS OF THE UNIVERSITY OF MICHIGAN, priority 2021, published 2024) can be followed below.

The first assay concerns the target T1, ER (Homo sapiens, UniProt P03372).
T1 construct: host or cells: T47D and MCF7 human breast cancer cells
T1 sequence (P03372 1-595): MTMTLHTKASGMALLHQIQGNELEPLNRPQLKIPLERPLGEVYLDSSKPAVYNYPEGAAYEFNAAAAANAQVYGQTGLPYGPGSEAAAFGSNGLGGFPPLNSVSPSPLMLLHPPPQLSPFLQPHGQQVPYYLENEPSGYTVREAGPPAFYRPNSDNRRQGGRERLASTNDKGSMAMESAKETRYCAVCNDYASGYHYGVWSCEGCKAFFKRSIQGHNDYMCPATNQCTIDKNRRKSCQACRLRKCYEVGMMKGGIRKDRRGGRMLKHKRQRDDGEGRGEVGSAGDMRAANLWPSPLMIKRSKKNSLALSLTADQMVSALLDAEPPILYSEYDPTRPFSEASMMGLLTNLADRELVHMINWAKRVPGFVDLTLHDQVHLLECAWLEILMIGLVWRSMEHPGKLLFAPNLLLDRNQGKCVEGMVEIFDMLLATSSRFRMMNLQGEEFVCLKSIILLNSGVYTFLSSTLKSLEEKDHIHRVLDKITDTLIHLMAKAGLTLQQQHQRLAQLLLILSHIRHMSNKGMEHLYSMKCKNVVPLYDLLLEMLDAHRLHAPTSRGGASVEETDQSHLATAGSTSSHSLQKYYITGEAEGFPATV
The assay can be described thus: ER degradation activity, in-cell western blot analysis in T47D cells. The class given is cell-based. The settings on record: 16 hours, Table A does not say which cell line (T47D or MCF7), read-out: Potency (DC50). The essentials:
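In-cell western, T47D; compounds 16 h, 0.5% DMSO final; anti-rabbit-680/anti-mouse-800 secondaries, 1 h RT, dark; read on CLX imager. ER % vs untreated/DMSO wells (100%).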
For orientation: DC50 means the concentration at which degradation of the target reaches its halfway point. Consider `C[C@@H]1Cc2c([nH]c3ccccc23)[C@@H](c2c(F)cc(N3CCC(N4CCN(CC(=O)N5Cc6cc7c(cc6C5)C(=O)N(C5CCC(=O)NC5=O)C7=O)CC4)CC3)cc2F)N1CC(F)F` (stereo partly drawn) [E 95, 6-(2-(4-(1-(4-((1R,3R)-2-(2,2-difluoroethyl)-3-methyl-2,3,4,9-tetrahydro-1H-pyrido[3,4-b]indol-1-yl)-3,5-difluorophenyl)piperidin-4-yl)piperazin-1-yl)acetyl)-2-(2,6-dioxopiperidin-3-yl)-6,7-dihydropyrrolo[3,4-f]isoindole-1,3(2H,5H)-dione], for which the DC50 is less than 10 nM. Regarding `O=C1CCC(N2C(=O)c3cc4c(cc3C2=O)CN(CC(=O)N2CCC3(CC2)CCN(c2ccc([C@@H]5c6ccc(O)cc6CC[C@@H]5c5ccc(F)cc5)cc2)C3)C4)C(=O)N1` (stereo partly drawn) [E 186, 2-(2,6-dioxopiperidin-3-yl)-6-(2-(2-(4-((1R,2S)-2-(4-fluorophenyl)-6-hydroxy-1,2,3,4-tetrahydronaphthalen-1-yl)phenyl)-2,8-diazaspiro[4.5]decan-8-yl)-2-oxoethyl)-6,7-dihydropyrrolo[3,4-f]isoindole-1,3(2H,5H)-dione], the 50% degradation concentration (DC50) was in the range of 10 to 100 nM.

As to `O=C1CCC(N2C(=O)c3cc4c(cc3C2=O)CN([C@H]2CC[C@@H](NC3CN(c5ccc([C@@H]6c7ccc(O)cc7CC[C@@H]6c6ccccc6)cc5)C3)CC2)C4)C(=O)N1` (stereo partly drawn) [E 340, 2-(2,6-dioxopiperidin-3-yl)-6-((1S,4s)-4-((1-(4-((1R,2S)-6-hydroxy-2-phenyl-1,2,3,4-tetrahydronaphthalen-1-yl)phenyl)azetidin-3-yl)amino)cyclohexyl)-6,7-dihydropyrrolo[3,4-f]isoindole-1,3(2H,5H)-dione], the DC50 is greater than 100 nM. With `O=C1CCC(N2C(=O)c3cc4c(cc3C2=O)CN(Cc2ccc(N3CC(Oc5ccc([C@@H]6c7ccc(O)cc7CC[C@@H]6c6ccccc6)cc5)C3)nc2)C4)C(=O)N1` (stereo partly drawn) [E329, 2-(2,6-dioxopiperidin-3-yl)-6-((6-(3-(4-((1R,2S)-6-hydroxy-2-phenyl-1,2,3,4-tetrahydronaphthalen-1-yl)phenoxy)azetidin-1-yl)pyridin-3-yl)methyl)-6,7-dihydropyrrolo[3,4-f]isoindole-1,3(2H,5H)-dione], the DC50 lay within 10 to 100 nM.

Regarding `O=C1CCC(N2C(=O)c3cc4c(cc3C2=O)CN(C(=O)CN2CCC3(CC2)CCN(c2ccc([C@@H]5c6ccc(O)cc6CC[C@@H]5c5ccc(F)cc5)cc2)C3)C4)C(=O)N1` (mixture of isomers) [E 152, Rac-2-(2,6-dioxopiperidin-3-yl)-6-(2-(2-(4-((1R,2S)-2-(4-fluorophenyl)-6-hydroxy-1,2,3,4-tetrahydronaphthalen-1-yl)phenyl)-2,8-diazaspiro[4.5]decan-8-yl)acetyl)-6,7-dihydropyrrolo[3,4-f]isoindole-1,3(2H,5H)-dione], the 50% degradation concentration (DC50) was greater than 100 nM. For `C[C@@H]1Cc2c([nH]c3ccccc23)[C@@H](c2cnc(N3CCC(C(=O)N4CCC(N5Cc6cc7c(cc6C5)C(=O)N(C5CCC(=O)NC5=O)C7=O)CC4)CC3)nc2)N1CC(F)(F)F` (stereo partly drawn) [E 257, 2-(2,6-dioxopiperidin-3-yl)-6-(1-(1-(5-((1R,3R)-3-methyl-2-(2,2,2-trifluoroethyl)-2,3,4,9-tetrahydro-1H-pyrido[3,4-b]indol-1-yl)pyrimidin-2-yl)piperidine-4-carbonyl)piperidin-4-yl)-6,7-dihydropyrrolo[3,4-f]isoindole-1,3(2H,5H)-dione], the half-maximal degradation concentration (DC50) is less than 10 nM.

For `C[C@@H]1Cc2c([nH]c3ccccc23)[C@@H](c2cnc(N3CCC4(CCN(C(=O)CN5Cc6cc7c(cc6C5)C(=O)N(C5CCC(=O)NC5=O)C7=O)CC4)CC3)nc2)N1CC(F)(F)F` (stereo partly drawn) [E 254, 2-(2,6-dioxopiperidin-3-yl)-6-(2-(9-(5-((1R,3R)-3-methyl-2-(2,2,2-trifluoroethyl)-2,3,4,9-tetrahydro-1H-pyrido[3,4-b]indol-1-yl)pyrimidin-2-yl)-3,9-diazaspiro[5.5]undecan-3-yl)-2-oxoethyl)-6,7-dihydropyrrolo[3,4-f]isoindole-1,3(2H,5H)-dione], the 50% degradation concentration (DC50) was less than 10 nM. Take `O=C1CCC(N2C(=O)c3cc4c(cc3C2=O)CN(CC(=O)N2CCC3(CC2)CCN(c2ccc(C(=C(CCCl)c5ccc(F)cc5)c5ccc(O)cc5)cc2)CC3)CC4)C(=O)N1` (stereo not shown) [E 193]: the DC50 is 10 to 100 nM.

`C[C@@H]1Cc2c([nH]c3ccccc23)[C@@H](c2c(F)cc(N3CCC(N4CC(CC(=O)N5Cc6cc7c(cc6C5)C(=O)N(C5CCC(=O)NC5=O)C7=O)C4)CC3)cc2F)N1CC(F)F` (stereo partly drawn) [E 55, 6-(2-(1-(1-(4-((1R,3R)-2-(2,2-difluoroethyl)-3-methyl-2,3,4,9-tetrahydro-1H-pyrido[3,4-b]indol-1-yl)-3,5-difluorophenyl)piperidin-4-yl)azetidin-3-yl)acetyl)-2-(2,6-dioxopiperidin-3-yl)-6,7-dihydropyrrolo[3,4-f]isoindole-1,3(2H,5H)-dione]: the half-maximal degradation concentration (DC50) was greater than 100 nM. In the case of `C[C@@H]1Cc2c([nH]c3ccccc23)[C@@H](c2ccc(N3CCC4(CCN(C(=O)CN5Cc6cc7c(cc6C5)C(=O)N(C5CCC(=O)NC5=O)C7=O)CC4)CC3)cc2F)N1CC(F)F` (stereo partly drawn) [E 293, 6-(2-(9-(4-((1R,3R)-2-(2,2-difluoroethyl)-3-methyl-2,3,4,9-tetrahydro-1H-pyrido[3,4-b]indol-1-yl)-3-fluorophenyl)-3,9-diazaspiro[5.5]undecan-3-yl)-2-oxoethyl)-2-(2,6-dioxopiperidin-3-yl)-6,7-dihydropyrrolo[3,4-f]isoindole-1,3(2H,5H)-dione], the DC50 fell in the range of 10 to 100 nM. As to `C[C@@H]1Cc2cc(O)ccc2[C@@H](c2ccc(N3CCC(C(=O)N4CCC(N5Cc6cc7c(cc6C5)C(=O)N(C5CCC(=O)NC5=O)C7=O)CC4)CC3)cc2)N1CC(F)F` (stereo partly drawn) [E 318, 6-(1-(1-(4-((1R,3R)-2-(2,2-difluoroethyl)-6-hydroxy-3-methyl-1,2,3,4-tetrahydroisoquinolin-1-yl)phenyl)piperidine-4-carbonyl)piperidin-4-yl)-2-(2,6-dioxopiperidin-3-yl)-6,7-dihydropyrrolo[3,4-f]isoindole-1,3(2H,5H)-dione], the half-maximal degradation concentration (DC50) is less than 10 nM.

Still in this assay, the particulars now being: compounds 16 hours, Table A does not say whether T47D or MCF7, read-out: Potency (DC50).
For `O=C1CCC(N2C(=O)c3cc4c(cc3C2=O)CN(CC(=O)N2CCC3(CC2)CCN(c2ccc([C@@H]5c6ccc(-c7cn[nH]c7)cc6CC[C@@H]5c5ccccc5)cc2)CC3)C4)C(=O)N1` (stereo partly drawn) [E 510, 2-(2,6-dioxopiperidin-3-yl)-6-(2-oxo-2-(9-(4-((1R,2S)-2-phenyl-6-(1H-pyrazol-4-yl)-1,2,3,4-tetrahydronaphthalen-1-yl)phenyl)-3,9-diazaspiro[5.5]undecan-3-yl)ethyl)-6,7-dihydropyrrolo[3,4-f]isoindole-1,3(2H,5H)-dione], the DC50 was greater than 100 nM. Turning to `C[C@@H]1Cc2c([nH]c3ccccc23)[C@@H](c2ncc(C3=CCC(C(=O)N4CCC(N5Cc6cc7c(cc6C5)C(=O)N(C5CCC(=O)NC5=O)C7=O)CC4)CC3)cc2F)N1CC(F)F` (stereo partly drawn) [E 399, 6-(1-(4-(6-((1S,3R)-2-(2,2-difluoroethyl)-3-methyl-2,3,4,9-tetrahydro-1H-pyrido[3,4-b]indol-1-yl)-5-fluoropyridin-3-yl)cyclohex-3-ene-1-carbonyl)piperidin-4-yl)-2-(2,6-dioxopiperidin-3-yl)-6,7-dihydropyrrolo[3,4-f]isoindole-1,3(2H,5H)-dione], the 50% degradation concentration (DC50) was greater than 100 nM.
